Assay results: PubChem BioAssay (NCI)
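Tested at 5 concentrations; 48 h exposure; 96-well plates; endpoints linearly interpolated, else capped at highest concentration. TGI denotes the concentration required for complete inhibition of growth.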

Assays:
Assay in all cases: NCI-60 cell line screen, 48 h
HT29 colon = tested on: HT29 colon
MDA-N = tested on: MDA-N
ACHN renal = tested on: ACHN renal
OVCAR-3 ovarian = tested on: OVCAR-3 ovarian
DU-145 prostate = tested on: DU-145 prostate
SR leukemia = tested on: SR leukemia
UACC-62 melanoma = tested on: UACC-62 melanoma
SK-MEL-2 melanoma = tested on: SK-MEL-2 melanoma
M14 melanoma = tested on: M14 melanoma
TK-10 renal = tested on: TK-10 renal
MALME-3M melanoma = tested on: MALME-3M melanoma
786-0 renal = tested on: 786-0 renal
NCI/ADR-RES ovarian = tested on: NCI/ADR-RES ovarian
U251 CNS = tested on: U251 CNS
RPMI-8226 leukemia = tested on: RPMI-8226 leukemia
NCI-H23 lung = tested on: NCI-H23 lung
PC-3 prostate = tested on: PC-3 prostate
COLO 205 colon = tested on: COLO 205 colon
A549 NSCLC = tested on: A549 NSCLC
OVCAR-5 ovarian = tested on: OVCAR-5 ovarian
KM12 colon = tested on: KM12 colon
K-562 leukemia = tested on: K-562 leukemia
CAKI-1 renal = tested on: CAKI-1 renal
HCT-116 colon = tested on: HCT-116 colon
LOX IMVI melanoma = tested on: LOX IMVI melanoma
MDA-MB-231 breast = tested on: MDA-MB-231 breast
HL-60(TB) leukemia = tested on: HL-60(TB) leukemia
EKVX NSCLC = tested on: EKVX NSCLC
SK-MEL-5 melanoma = tested on: SK-MEL-5 melanoma
MOLT-4 leukemia = tested on: MOLT-4 leukemia
SN12C renal = tested on: SN12C renal
SK-OV-3 ovarian = tested on: SK-OV-3 ovarian
SW-620 colon = tested on: SW-620 colon
SF-268 CNS = tested on: SF-268 CNS
IGROV1 ovarian = tested on: IGROV1 ovarian
HOP-62 NSCLC = tested on: HOP-62 NSCLC
HOP-92 NSCLC = tested on: HOP-92 NSCLC
HCT-15 colon = tested on: HCT-15 colon
CCRF-CEM leukemia = tested on: CCRF-CEM leukemia
SF-295 CNS = tested on: SF-295 CNS
UO-31 renal = tested on: UO-31 renal
SF-539 CNS = tested on: SF-539 CNS
NCI-H226 lung = tested on: NCI-H226 lung
MDA-MB-435 = tested on: MDA-MB-435
SNB-19 CNS = tested on: SNB-19 CNS
UACC-257 melanoma = tested on: UACC-257 melanoma
SK-MEL-28 melanoma = tested on: SK-MEL-28 melanoma
OVCAR-8 ovarian = tested on: OVCAR-8 ovarian
T-47D breast = tested on: T-47D breast
NCI-H460 lung = tested on: NCI-H460 lung
RXF 393 renal = tested on: RXF 393 renal
MCF7 breast = tested on: MCF7 breast
HCC-2998 colon = tested on: HCC-2998 colon
OVCAR-4 ovarian = tested on: OVCAR-4 ovarian
HS 578T breast = tested on: HS 578T breast
SNB-75 CNS = tested on: SNB-75 CNS
BT-549 breast = tested on: BT-549 breast
NCI-H522 lung = tested on: NCI-H522 lung
A498 renal = tested on: A498 renal

## Oc1c(N2CCCCC2)cc(-c2cc(N3CCCCC3)c(O)c3ccccc23)c2ccccc12
HT29 colon
  TGI: 55.5 µM
MDA-N
  TGI: 33.5 µM
ACHN renal
  TGI: > 100 µM
OVCAR-3 ovarian
  TGI: > 100 µM
DU-145 prostate
  TGI: 49 µM
SR leukemia
  TGI: 16.2 µM
UACC-62 melanoma
  TGI: 51.6 µM
SK-MEL-2 melanoma
  TGI: 91.6 µM
M14 melanoma
  TGI: 32 µM
TK-10 renal
  TGI: > 100 µM
MALME-3M melanoma
  TGI: 24.3 µM
786-0 renal
  TGI: 45 µM
NCI/ADR-RES ovarian
  TGI: > 100 µM
U251 CNS
  TGI: > 100 µM
RPMI-8226 leukemia
  TGI: > 100 µM
NCI-H23 lung
  TGI: 79.7 µM
PC-3 prostate
  TGI: > 100 µM
COLO 205 colon
  TGI: 67.6 µM
A549 NSCLC
  TGI: > 100 µM
OVCAR-5 ovarian
  TGI: > 100 µM
KM12 colon
  TGI: > 100 µM
K-562 leukemia
  TGI: > 100 µM
CAKI-1 renal
  TGI: > 100 µM
HCT-116 colon
  TGI: 40.7 µM
LOX IMVI melanoma
  TGI: 73.2 µM
MDA-MB-231 breast
  TGI: > 100 µM
HL-60(TB) leukemia
  TGI: > 100 µM
EKVX NSCLC
  TGI: > 100 µM
SK-MEL-5 melanoma
  TGI: 34.6 µM
MOLT-4 leukemia
  TGI: 79.8 µM
SN12C renal
  TGI: > 100 µM
SK-OV-3 ovarian
  TGI: > 100 µM
SW-620 colon
  TGI: 94.2 µM
SF-268 CNS
  TGI: > 100 µM
IGROV1 ovarian
  TGI: > 100 µM
HOP-62 NSCLC
  TGI: > 100 µM
HOP-92 NSCLC
  TGI: 70.4 µM
HCT-15 colon
  TGI: > 100 µM
CCRF-CEM leukemia
  TGI: > 100 µM
SF-295 CNS
  TGI: > 100 µM
UO-31 renal
  TGI: > 100 µM
SF-539 CNS
  TGI: 81.8 µM
NCI-H226 lung
  TGI: > 100 µM
MDA-MB-435
  TGI: 23.2 µM
SNB-19 CNS
  TGI: > 100 µM
UACC-257 melanoma
  TGI: 28.5 µM
SK-MEL-28 melanoma
  TGI: 40.9 µM
OVCAR-8 ovarian
  TGI: > 100 µM
T-47D breast
  TGI: > 100 µM
NCI-H460 lung
  TGI: > 100 µM
RXF 393 renal
  TGI: 77.7 µM
MCF7 breast
  TGI: 59.2 µM
HCC-2998 colon
  TGI: > 100 µM
OVCAR-4 ovarian
  TGI: 44.9 µM
HS 578T breast
  TGI: 72.6 µM

## NC1=NC2(COC(c3ccccc3)(c3ccccc3)c3ccccc3)OC(COC(c3ccccc3)(c3ccccc3)c3ccccc3)C(O)C2O1 (centres undefined)
HT29 colon
  TGI: > 100 µM
MDA-N
  TGI: > 100 µM
ACHN renal
  TGI: > 100 µM
OVCAR-3 ovarian
  TGI: > 100 µM
DU-145 prostate
  TGI: > 100 µM
SR leukemia
  TGI: > 100 µM
UACC-62 melanoma
  TGI: > 100 µM
SK-MEL-2 melanoma
  TGI: 85.5 µM
M14 melanoma
  TGI: > 100 µM
TK-10 renal
  TGI: > 100 µM
MALME-3M melanoma
  TGI: > 100 µM
SNB-75 CNS
  TGI: 4.47 µM
786-0 renal
  TGI: > 100 µM
NCI/ADR-RES ovarian
  TGI: > 100 µM
U251 CNS
  TGI: > 100 µM
RPMI-8226 leukemia
  TGI: 52.4 µM
NCI-H23 lung
  TGI: > 100 µM
PC-3 prostate
  TGI: > 100 µM
BT-549 breast
  TGI: > 100 µM
COLO 205 colon
  TGI: > 100 µM
A549 NSCLC
  TGI: > 100 µM
OVCAR-5 ovarian
  TGI: > 100 µM
KM12 colon
  TGI: > 100 µM
K-562 leukemia
  TGI: > 100 µM
CAKI-1 renal
  TGI: > 100 µM
HCT-116 colon
  TGI: > 100 µM
LOX IMVI melanoma
  TGI: > 100 µM
MDA-MB-231 breast
  TGI: > 100 µM
HL-60(TB) leukemia
  TGI: > 100 µM
EKVX NSCLC
  TGI: > 100 µM
SK-MEL-5 melanoma
  TGI: > 100 µM
MOLT-4 leukemia
  TGI: > 100 µM
SN12C renal
  TGI: > 100 µM
SK-OV-3 ovarian
  TGI: > 100 µM
SW-620 colon
  TGI: > 100 µM
NCI-H522 lung
  TGI: > 100 µM
IGROV1 ovarian
  TGI: > 100 µM
HOP-62 NSCLC
  TGI: > 100 µM
HOP-92 NSCLC
  TGI: > 100 µM
HCT-15 colon
  TGI: > 100 µM
CCRF-CEM leukemia
  TGI: > 100 µM
SF-295 CNS
  TGI: > 100 µM
UO-31 renal
  TGI: > 100 µM
SF-539 CNS
  TGI: > 100 µM
NCI-H226 lung
  TGI: > 100 µM
MDA-MB-435
  TGI: > 100 µM
SNB-19 CNS
  TGI: > 100 µM
UACC-257 melanoma
  TGI: > 100 µM
A498 renal
  TGI: > 100 µM
SK-MEL-28 melanoma
  TGI: > 100 µM
OVCAR-8 ovarian
  TGI: > 100 µM
T-47D breast
  TGI: > 100 µM
RXF 393 renal
  TGI: > 100 µM
MCF7 breast
  TGI: > 100 µM

## O=C(CCc1cc(O)cc(O)c1)NCCc1cc(O)cc(OCc2ccccc2)c1
HT29 colon
  TGI: > 100 µM
MDA-N
  TGI: > 100 µM
ACHN renal
  TGI: 81.6 µM
OVCAR-3 ovarian
  TGI: > 100 µM
DU-145 prostate
  TGI: > 100 µM
SR leukemia
  TGI: 87.3 µM
UACC-62 melanoma
  TGI: > 100 µM
SK-MEL-2 melanoma
  TGI: > 100 µM
M14 melanoma
  TGI: > 100 µM
TK-10 renal
  TGI: > 100 µM
SNB-75 CNS
  TGI: 76.2 µM
786-0 renal
  TGI: > 100 µM
NCI/ADR-RES ovarian
  TGI: > 100 µM
U251 CNS
  TGI: > 100 µM
RPMI-8226 leukemia
  TGI: 90.5 µM
NCI-H23 lung
  TGI: > 100 µM
PC-3 prostate
  TGI: > 100 µM
BT-549 breast
  TGI: 66.1 µM
COLO 205 colon
  TGI: > 100 µM
A549 NSCLC
  TGI: > 100 µM
OVCAR-5 ovarian
  TGI: > 100 µM
KM12 colon
  TGI: > 100 µM
K-562 leukemia
  TGI: 96.3 µM
CAKI-1 renal
  TGI: > 100 µM
HCT-116 colon
  TGI: > 100 µM
LOX IMVI melanoma
  TGI: > 100 µM
MDA-MB-231 breast
  TGI: > 100 µM
EKVX NSCLC
  TGI: > 100 µM
SK-MEL-5 melanoma
  TGI: 37.1 µM
MOLT-4 leukemia
  TGI: 66.2 µM
SN12C renal
  TGI: > 100 µM
SK-OV-3 ovarian
  TGI: > 100 µM
SW-620 colon
  TGI: > 100 µM
NCI-H522 lung
  TGI: > 100 µM
SF-268 CNS
  TGI: > 100 µM
IGROV1 ovarian
  TGI: > 100 µM
HOP-62 NSCLC
  TGI: > 100 µM
HOP-92 NSCLC
  TGI: > 100 µM
HCT-15 colon
  TGI: > 100 µM
SF-295 CNS
  TGI: > 100 µM
UO-31 renal
  TGI: > 100 µM
SF-539 CNS
  TGI: > 100 µM
NCI-H226 lung
  TGI: > 100 µM
MDA-MB-435
  TGI: > 100 µM
SNB-19 CNS
  TGI: > 100 µM
UACC-257 melanoma
  TGI: > 100 µM
A498 renal
  TGI: > 100 µM
SK-MEL-28 melanoma
  TGI: > 100 µM
OVCAR-8 ovarian
  TGI: > 100 µM
T-47D breast
  TGI: > 100 µM
NCI-H460 lung
  TGI: 47.3 µM
RXF 393 renal
  TGI: > 100 µM
MCF7 breast
  TGI: > 100 µM
HCC-2998 colon
  TGI: 39.1 µM
HS 578T breast
  TGI: > 100 µM
